# Results taken from article PMC3626541, “A first in human, safety, pharmacokinetics, and clinical activity phase I study of once weekly administration of the Hsp90 inhibitor ganetespib (STA-9090) in patients with solid malignancies” (BMC Cancer, 2013).
# Test system: patients with advanced solid tumors
# Experiment: Safety: adverse events (NCI CTCAE v3.0), ECG
# Type: in vivo, human
# Description: Patients’ demographics and medical history were recorded at baseline. Physical examination and PS were assessed at baseline and on Day 1 of each cycle. Adverse events (AEs), vital signs, hematology and chemistry values, and creatinine clearance were assessed at baseline and weekly during treatment. Toxicity was graded using National Cancer Institute Common Terminology Criteria for Adverse Events (NCI CTCAE), version 3.0. An electrocardiogram (ECG) was performed at baseline, before and after treatment on Days 1 and 15 of Cycles 1 and 2, and on Day 15 of even-numbered cycles thereafter. CT scans were done at baseline and every 8 weeks thereafter. Tumor response was assessed using Response Evaluation Criteria in Solid Tumors (RECIST, v1.0), with confirmation of responses performed at least 4 weeks later.
smiles,measurement,setting,value
"CC(C)c1cc(-c2n[nH]c(=O)n2-c2ccc3c(ccn3C)c2)c(O)cc1O [Ganetespib, 5-[2,4-dihydroxy-5-(1 methyl-ethyl)phenyl]-2,4 dihydro-4-(1-methyl-1H indol-5 yl)-3H-1,2,4 triazole-3-one]","ALT elevation, CTCAE Grade 3 and 4 AE, Number (%) of patients","259 mg/m^2, n = 6",0 n (%)
same,"AST elevated, AE of any grade, Number (%) of patients","259 mg/m^2, n = 6",0 n (%)
same,"Abdominal distension, AE of any grade, Number (%) of patients","259 mg/m^2, n = 6",0 n (%)
same,"Abdominal pain, AE of any grade, Number (%) of patients","259 mg/m^2, n = 6",1 (16.7) n (%)
same,"Abdominal pain, serious adverse events, Number (%) of patients","259 mg/m^2, n = 6",1 (16.7) n (%)
same,"Anemia, AE of any grade, Number (%) of patients","259 mg/m^2, n = 6",0 n (%)
same,"Any event, AE of any grade, Number (%) of patients","259 mg/m^2, n = 6",6 (100) n (%)
same,"Any event, CTCAE Grade 3 and 4 AE, Number (%) of patients","259 mg/m^2, n = 6",5 (83.3) n (%)
same,"Any event, serious adverse events, Number (%) of patients","259 mg/m^2, n = 6",3 (50) n (%)
same,"Arthralgia, CTCAE Grade 3 and 4 AE, Number (%) of patients","259 mg/m^2, n = 6",1 (16.7) n (%)
same,"Asthenia, AE of any grade, Number (%) of patients","259 mg/m^2, n = 6",2 (33.3) n (%)
same,"Asthenia, CTCAE Grade 3 and 4 AE, Number (%) of patients","259 mg/m^2, n = 6",2 (33.3) n (%)
same,"Asthenia, serious adverse events, Number (%) of patients","259 mg/m^2, n = 6",1 (16.7) n (%)
same,"Back pain, AE of any grade, Number (%) of patients","259 mg/m^2, n = 6",2 (33.3) n (%)
same,"Constipation, AE of any grade, Number (%) of patients","259 mg/m^2, n = 6",1 (16.7) n (%)
same,"Decreased appetite, AE of any grade, Number (%) of patients","259 mg/m^2, n = 6",1 (16.7) n (%)
same,"Dehydration, AE of any grade, Number (%) of patients","259 mg/m^2, n = 6",3 (50) n (%)
same,"Dehydration, CTCAE Grade 3 and 4 AE, Number (%) of patients","259 mg/m^2, n = 6",1 (16.7) n (%)
same,"Dehydration, serious adverse events, Number (%) of patients","259 mg/m^2, n = 6",1 (16.7) n (%)
same,"Diarrhea, AE of any grade, Number (%) of patients","259 mg/m^2, n = 6",6 (100) n (%)
same,"Diarrhea, CTCAE Grade 3 and 4 AE, Number (%) of patients","259 mg/m^2, n = 6",1 (16.7) n (%)
same,"Dizziness, AE of any grade, Number (%) of patients","259 mg/m^2, n = 6",2 (33.3) n (%)
same,"Dry mouth, AE of any grade, Number (%) of patients","259 mg/m^2, n = 6",1 (16.7) n (%)
same,"Dyspnea, AE of any grade, Number (%) of patients","259 mg/m^2, n = 6",1 (16.7) n (%)
same,"Extremity pain, AE of any grade, Number (%) of patients","259 mg/m^2, n = 6",1 (16.7) n (%)
same,"Fatigue, AE of any grade, Number (%) of patients","259 mg/m^2, n = 6",5 (83.3) n (%)
same,"Fatigue, CTCAE Grade 3 and 4 AE, Number (%) of patients","259 mg/m^2, n = 6",1 (16.7) n (%)
same,"Headache, AE of any grade, Number (%) of patients","259 mg/m^2, n = 6",1 (16.7) n (%)
same,"Hyperbilirubinemia, CTCAE Grade 3 and 4 AE, Number (%) of patients","259 mg/m^2, n = 6",0 n (%)
same,"Hypokalemia, AE of any grade, Number (%) of patients","259 mg/m^2, n = 6",1 (16.7) n (%)
same,"Hypokalemia, CTCAE Grade 3 and 4 AE, Number (%) of patients","259 mg/m^2, n = 6",0 n (%)
same,"Hyponatremia, CTCAE Grade 3 and 4 AE, Number (%) of patients","259 mg/m^2, n = 6",0 n (%)
same,"Hypophosphatemia, AE of any grade, Number (%) of patients","259 mg/m^2, n = 6",0 n (%)
same,"Hypophosphatemia, CTCAE Grade 3 and 4 AE, Number (%) of patients","259 mg/m^2, n = 6",0 n (%)
same,"Insomnia, AE of any grade, Number (%) of patients","259 mg/m^2, n = 6",2 (33.3) n (%)
same,"Musculoskeletal chest pain, AE of any grade, Number (%) of patients","259 mg/m^2, n = 6",0 n (%)
same,"Nausea, AE of any grade, Number (%) of patients","259 mg/m^2, n = 6",4 (66.7) n (%)
same,"Peripheral edema, AE of any grade, Number (%) of patients","259 mg/m^2, n = 6",1 (16.7) n (%)
same,"Pneumonia, serious adverse events, Number (%) of patients","259 mg/m^2, n = 6",1 (16.7) n (%)
same,"Rash, AE of any grade, Number (%) of patients","259 mg/m^2, n = 6",1 (16.7) n (%)
same,"Serum amylase elevated, CTCAE Grade 3 and 4 AE, Number (%) of patients","259 mg/m^2, n = 6",0 n (%)
same,"Spinal cord compression, CTCAE Grade 3 and 4 AE, Number (%) of patients","259 mg/m^2, n = 6",0 n (%)
same,"Urinary tract infection, AE of any grade, Number (%) of patients","259 mg/m^2, n = 6",3 (50) n (%)
same,"Vomiting, AE of any grade, Number (%) of patients","259 mg/m^2, n = 6",3 (50) n (%)
same,"Weight decreased, AE of any grade, Number (%) of patients","259 mg/m^2, n = 6",1 (16.7) n (%)
same,"ALT elevated, AE of any grade, Number (%) of patients","259 mg/m^2, n = 6, first of two ALT elevated lines",0 n (%)
same,"ALT elevated, AE of any grade, Number (%) of patients","259 mg/m^2, n = 6, second of two ALT elevated lines",0 n (%)
same,Patients with Grade 1 atrio-ventricular block,"259 mg/m^2, history of coronary artery disease, possibly related to study drug",One patient
same,Incidence of diarrhea,259 mg/m^2 dose level,100%
same,Incidence of fatigue,259 mg/m^2 dose level,83.3%
same,"ALT elevation, CTCAE Grade 3 and 4 AE, Number (%) of patients","7-114 mg/m^2, n = 25",2 (8) n (%)
same,"AST elevated, AE of any grade, Number (%) of patients","7-114 mg/m^2, n = 25",5 (20) n (%)
same,"Abdominal distension, AE of any grade, Number (%) of patients","7-114 mg/m^2, n = 25",3 (12) n (%)
same,"Abdominal pain, AE of any grade, Number (%) of patients","7-114 mg/m^2, n = 25",9 (36) n (%)
same,"Abdominal pain, serious adverse events, Number (%) of patients","7-114 mg/m^2, n = 25",0 n (%)
same,"Anemia, AE of any grade, Number (%) of patients","7-114 mg/m^2, n = 25",11 (44) n (%)
